Where two headings read alike, the source gives them in different places.
How the values were obtained:
Assay in all cases: greenhouse post-emergence herbicidal test
IPOHE = type: in vivo, Ipomoea hederacea; design: key to herbicidal activity against IPOHE found: rating on a scale from 0 to 100; settings: post emergence
Summary of the method: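 Post-emergence greenhouse test: plants in loamy sand, sprayed at 1–15 cm height with aqueous spray liquor from 10% emulsion concentrates, kept at 10-25 °C or 20-35 °C by species. Damage scored 0–100 (100 = complete destruction), usually 20 days after treatment. Expected additive effect E from Colby: E=X+Y−(X·Y/100).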

SORVU = type: in vivo; settings: 6 days after treatment
GERDI = type: in vivo, Geranium dissectum; design: key to herbicidal activity against GERDI found: rating on a scale from 0 to 100; settings: post emergence
Summary of the method: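 Once 1 to 15 cm tall, potted seedlings in loamy sand received the active compounds emulsified or suspended in water. After 20 days, damage versus untreated growth was graded on a 0–100 scale, and synergy judged against Colby's additive value E.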

DIGSA = type: in vivo, Digitaria sanguinalis
Procedure: The culture containers used were plastic pots containing medium loamy sand with approximately 4.6% of humus and 69.9% sand as substrate. The seeds of the test plants were sown separately for each species.
For the post-emergence treatment, the test plants were grown to a plant height of from 1 to 15 cm, depending on the plant habit, and only then treated with the active compounds which had been suspended or emulsified in water. To this end, the test plants were either sown directly, and grown in the same containers, or they were first grown separately as seedlings and transplanted into the test containers a few days prior to treatment.
Depending on the species, the plants were kept at 10-25° C. and 20-35° C., respectively.
The test period extended over 1 to 3 weeks. During this time, the plants were tended and their response to the individual treatments was evaluated 20 days after treatment except mentioned otherwise.
Evaluation was carried out using a scale from 0 to 100. 100 means no emergence of the plants, or complete destruction of at least the above-ground parts, and 0 means no damage or normal course of growth.
The respective stated components A and B, and, if appropriate, C, were formulated as a 10% by weight strength emulsion concentrate and, with addition of the amount of solvent system, introduced into the spray liquor used for applying the active compound. In the examples, the solvent used was water.
In the examples below, using the method of S. R. Colby (1967) “Calculating synergistic and antagonistic responses of herbicide combinations”, Weeds 15, p. 22 ff., the value E, which is expected if the activity of the individual active compounds is only additive, was calculated. E=X+Y−(X·Y/100)

[1] = I.1 62.5 g/ha, B.89 12.5 g/ha a.i.
[2] = I.1 62.5 g/ha, B.89 25 g/ha a.i.
[3] = a.i. g/ha: I.1 31.25, B.190 62.5, 20 days after treatment
[4] = application rate a.i.: I.1 62.5 g/ha, B.40 (imazethapyr) 7.5 g/ha, alone or as mixture (composition 1.40)
[5] = application rate a.i.: I.1 250 g/ha, B.193 15 g/ha, alone or as mixture (composition 1.193)

O=C(O)c1cc(C2CC2)nc2onc(C3CC3)c12 [I.1] was tested, and the “herbicidal activity against IPOHE found” value (IPOHE; I.1 62.5 g/ha, B.57 1 g/ha a.i.) was 30, the “herbicidal activity against IPOHE found” value (IPOHE; [1]) was 30 and the “herbicidal activity against IPOHE found” value (IPOHE; [2]) was 30. The “herbicidal activity against IPOHE found” value (IPOHE; a.i. g/ha: I.1 15.6, B.190 62.5, 20 days after treatment) was 50%, the “herbicidal activity against IPOHE found” value (IPOHE; [3]) was 65% and the “herbicidal activity against IPOHE found” value (IPOHE; [4]) was 95. The “herbicidal activity against IPOHE found” value (IPOHE; g/ha a.i.: I.1 31.25, B.20 2, mixture 31.25+2) was 25, the “herbicidal activity against IPOHE found” value (IPOHE; g/ha a.i.: I.1 31.25, B.24 1, mixture 31.25+1) was 25 and the “herbicidal activity against SORVU found” value (SORVU; g/ha a.i.: I.1 31.25, B.96 140, mixture 31.25+140) was 0. The “herbicidal activity against SORVU found” value (SORVU; g/ha a.i.: I.1 62.5, naptalam 200, mixture 62.5+200) was 20, the pest or weed control at 62.5 g/ha (GERDI; Geranium dissectum, post-emergence, 480 h, 62.5 g/ha a.i., read-out: herbicidal activity against GERDI found) was 90% and the pest or weed control at 31.25 g/ha (GERDI; Geranium dissectum, post-emergence, 480 h, I.1 31.25 g/ha a.i., read-out: herbicidal activity against GERDI found) was 50%. For the same molecule, the pest or weed control at 62.5 g/ha (GERDI; Geranium dissectum, post-emergence, 480 h, I.1 62.5 g/ha a.i., read-out: herbicidal activity against GERDI found) was 55%, the pest or weed control at 15.625 g/ha (GERDI; Geranium dissectum, post-emergence, 480 h, single active, 15.625 g/ha a.i., read-out: herbicidal activity against GERDI found) was 0% and the pest or weed control at 31.25 g/ha (GERDI; Geranium dissectum, post-emergence, 480 h, single active, 31.25 g/ha a.i., read-out: herbicidal activity against GERDI found) was 10%. For the same molecule, the pest or weed control at 62.5 g/ha (GERDI; Geranium dissectum, post-emergence, 480 h, single active, 62.5 g/ha a.i., read-out: herbicidal activity against GERDI found) was 60%, the pest or weed control at 125 g/ha (GERDI; Geranium dissectum, post-emergence, 480 h, single active, 125 g/ha a.i., read-out: herbicidal activity against GERDI found) was 70% and the “herbicidal activity against GERDI found” value (GERDI; I.1 15.6 g/ha, B.103 7.5 g/ha a.i.) was 0. For the same molecule, the “herbicidal activity against GERDI found” value (GERDI; I.1 15.62 g/ha, B.89 25 g/ha a.i.) was 0, the “herbicidal activity against GERDI found” value (GERDI; I.1 31.25 g/ha, B.103 7.5 g/ha a.i.) was 30 and the “herbicidal activity against GERDI found” value (GERDI; I.1 31.25 g/ha, B.103 15 g/ha a.i.) was 30. For the same molecule, the “herbicidal activity against GERDI found” value (GERDI; I.1 62.5 g/ha, B.103 7.5 g/ha a.i.) was 60, the “herbicidal activity against GERDI found” value (GERDI; I.1 62.5 g/ha, B.103 15 g/ha a.i.) was 60 and the “herbicidal activity against GERDI found” value (GERDI; I.1 62.5 g/ha, B.167 125 g/ha a.i.) was 60. For the same molecule, the “herbicidal activity against GERDI found” value (GERDI; I.1 62.5 g/ha, B.88 1 g/ha a.i.) was 0, the “herbicidal activity against GERDI found” value (GERDI; I.1 62.5 g/ha, B.88 2 g/ha a.i.) was 0 and the “herbicidal activity against GERDI found” value (GERDI; [1]) was 0. For the same molecule, the “herbicidal activity against GERDI found” value (GERDI; [2]) was 0, the “herbicidal activity against GERDI found” value (GERDI; I.1 62.5 g/ha, B.95 1 g/ha a.i.) was 0 and the “herbicidal activity against GERDI found” value (GERDI; I.1 62.5 g/ha, B.95 2 g/ha a.i.) was 0. For the same molecule, the “herbicidal activity against GERDI found” value (GERDI; a.i. g/ha: I.1 7.8, B.67 125, 20 days after treatment) was 0%, the “herbicidal activity against GERDI found” value (GERDI; a.i. g/ha: I.1 15.6, B.67 125, 20 days after treatment) was 0% and the “herbicidal activity against GERDI found” value (GERDI; [3]) was 30%. For the same molecule, the “herbicidal activity against GERDI found” value (GERDI; a.i. g/ha: I.1 31.25, B.67 125, 20 days after treatment) was 30%, the “herbicidal activity against GERDI found” value (GERDI; a.i. g/ha: I.1 31.25, B.67 125, 20 days after treatment, sub-table r36-r43) was 30% and the “herbicidal activity against GERDI found” value (GERDI; a.i. g/ha: I.1 62.5, B.67 125, 20 days after treatment) was 40%. The “herbicidal activity against GERDI found” value (GERDI; application rate a.i.: I.1 31.25 g/ha, B.100 (isoxaflutole) 12.5 g/ha, alone or as mixture (composition 1.100)) was 60, the “herbicidal activity against GERDI found” value (GERDI; application rate a.i.: I.1 31.25 g/ha, B.40 (imazethapyr) 7.5 g/ha, alone or as mixture (composition 1.40)) was 30 and the “herbicidal activity against GERDI found” value (GERDI; application rate a.i.: I.1 62.5 g/ha, B.100 (isoxaflutole) 12.5 g/ha, alone or as mixture (composition 1.100)) was 65. For the same molecule, the “herbicidal activity against GERDI found” value (GERDI; application rate a.i.: I.1 62.5 g/ha, B.30 (imazamox) 3.75 g/ha, alone or as mixture (composition 1.030)) was 85, the “herbicidal activity against GERDI found” value (GERDI; [4]) was 70 and the “herbicidal activity against GERDI found” value (GERDI; application rate a.i.: I.1 62.5 g/ha, B.87 (carfentrazone-ethyl) 1.75 g/ha, alone or as mixture (composition 1.87)) was 85. For the same molecule, the “herbicidal activity against GERDI found” value (GERDI; application rate a.i.: I.1 125 g/ha, B.113 (glyphosate) 135 g/ha, alone or as mixture (composition 1.113)) was 80, the “herbicidal activity against GERDI found” value (GERDI; [5]) was 95 and the “herbicidal activity against GERDI found” value (GERDI; applied alone at 31.25 g/ha a.i.) was 65. The “herbicidal activity against GERDI found” value (GERDI; g/ha a.i.: I.1 31.25, B.52 2.5, mixture 31.25+2.5) was 50, the “herbicidal activity against GERDI found” value (GERDI; g/ha a.i.: I.1 62.5, B.52 2.5, mixture 62.5+2.5) was 65 and the “herbicidal activity against GERDI found” value (GERDI; g/ha a.i.: I.1 125, B.52 2.5, mixture 125+2.5) was 65. The “herbicidal activity against DIGSA found” value (DIGSA; a.i. g/ha: I.1 31.25, B.76 225, 20 days after treatment) was 35%, the “herbicidal activity against DIGSA found” value (DIGSA; a.i. g/ha: I.1 62.5, B.76 225, 20 days after treatment) was 40% and the “herbicidal activity against DIGSA found” value (DIGSA; a.i. g/ha: I.1 62.5, B.80 250, 20 days after treatment) was 40%. The “herbicidal activity against DIGSA found” value (DIGSA; [5]) was 35.

Source: patent publication US10881110B2, “Herbicidal compositions comprising isoxazolo[5,4-b]pyridines” (BASF SE, priority 2014, dated 2021)
